Measured values: ChEMBL document CHEMBL1201862, “PubChem BioAssay data set” (2004)
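How tested: cells in 96-well plates exposed to compound for 48 hours at five concentrations. The concentration for 50% growth inhibition is given as GI50.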 Activity calls are given as the source filed them. Rule as the data show it: active = GI50 up to about 1.1 µM and inactive = higher.

Experiments:
Assay in all cases: growth of human tumour cells (NCI), 48 h
CAKI-1 = test system: CAKI-1
RXF 393 = test system: RXF 393
A498 = test system: A498
SN12C = test system: SN12C
DLD-1 = test system: DLD-1
HOP-92 = test system: HOP-92
Malme-3M = test system: Malme-3M
SNB-19 = test system: SNB-19
EKVX = test system: EKVX
SW-620 = test system: SW-620
DMS-273 = test system: DMS-273
HT-29 = test system: HT-29
OVCAR-4 = test system: OVCAR-4
OVCAR-5 = test system: OVCAR-5
UO-31 = test system: UO-31
COLO 205 = test system: COLO 205
UACC-257 = test system: UACC-257
HL-60 = test system: HL-60

Structure (SMILES) | GI50 (CAKI-1) | GI50 (RXF 393) | GI50 (A498) | GI50 (SN12C) | GI50 (DLD-1) | GI50 (HOP-92) | GI50 (Malme-3M) | GI50 (SNB-19) | GI50 (EKVX) | GI50 (SW-620) | GI50 (DMS-273) | GI50 (HT-29) | GI50 (OVCAR-4) | GI50 (OVCAR-5) | GI50 (UO-31) | GI50 (COLO 205) | GI50 (UACC-257) | GI50 (HL-60)
Cc1cc(NS(=O)(=O)c2ccc(NC(=O)c3ccc(Cl)c4c(Nc5ccc(S(=O)(=O)Nc6cc(C)on6)cc5)c5ccccc5nc34)cc2)no1 | 15.9 µM (inactive) | > 10 µM (inactive) | 24.1 µM (inactive) | 18.6 µM (inactive) | > 10 µM (inactive) | 19.8 µM (inactive) | 16.2 µM (inactive) | 14.4 µM (inactive) | 39 µM (inactive) | 28.1 µM (inactive) | 22.5 µM (inactive) | 19.8 µM (inactive) | 34.6 µM (inactive) | 21 µM (inactive) | 15.9 µM (inactive) | 22.4 µM (inactive) | 20.2 µM (inactive) | 21.3 µM (inactive)
CC(C)(C)C1(O)Cc2ccccc2C(=O)O1 (centres undefined) | > 100 µM (inactive) | > 100 µM (inactive) | > 100 µM (inactive) | > 100 µM (inactive) | > 100 µM (inactive) | > 100 µM (inactive) | > 100 µM (inactive) | > 100 µM (inactive) | > 100 µM (inactive) | > 100 µM (inactive) | > 100 µM (inactive) | > 100 µM (inactive) | > 100 µM (inactive) | > 100 µM (inactive) | > 100 µM (inactive) | > 100 µM (inactive) | > 100 µM (inactive) | > 100 µM (inactive)
C1CC2=C(C1)C1=S(S2)SC2=C1CCC2 | > 100 µM (inactive) | > 100 µM (inactive) | 10.7 µM (inactive) | > 100 µM (inactive) | > 100 µM (inactive) | > 100 µM (inactive) | > 100 µM (inactive) | > 100 µM (inactive) | > 100 µM (inactive) | > 100 µM (inactive) | > 100 µM (inactive) | > 100 µM (inactive) | > 100 µM (inactive) | > 100 µM (inactive) | > 100 µM (inactive) | > 100 µM (inactive) | > 100 µM (inactive) | > 100 µM (inactive)
Cn1c2c(c3ccccc31)CCN(CCCCN1CCN(c3cccc(Cl)c3)CC1)C2=O | 27.2 µM (inactive) | 7.94 µM (inactive) | 13.8 µM (inactive) | 12.8 µM (inactive) | 10.6 µM (inactive) | 15.2 µM (inactive) | > 10 µM (inactive) | 17.7 µM (inactive) | 21.5 µM (inactive) | 12.6 µM (inactive) | 9.06 µM (inactive) | 2.79 µM (inactive) | 14.9 µM (inactive) | 4.56 µM (inactive) | 6.21 µM (inactive) | 2.91 µM (inactive) | 7.03 µM (inactive) | 3.67 µM (inactive)
CN(/N=C/c1ccnc2ccccc12)c1ccc([N+](=O)[O-])cc1[N+](=O)[O-] | > 100 µM (inactive) | 41.8 µM (inactive) | > 100 µM (inactive) | > 100 µM (inactive) | > 100 µM (inactive) | 46.9 µM (inactive) | 61 µM (inactive) | 77.4 µM (inactive) | > 100 µM (inactive) | > 100 µM (inactive) | > 100 µM (inactive) | > 100 µM (inactive) | > 100 µM (inactive) | > 100 µM (inactive) | > 100 µM (inactive) | > 100 µM (inactive) | > 100 µM (inactive) | > 100 µM (inactive)
CC(C)=CCCc1c(C)ccc2c1C(=O)C(=O)C(C(C)C)=C2 | 4.16 µM (inactive) | 3.68 µM (inactive) | > 22 µM (inactive) | 9.06 µM (inactive) | 3.48 µM (inactive) | 3.26 µM (inactive) | 3.73 µM (inactive) | > 22 µM (inactive) | > 22 µM (inactive) | 3.86 µM (inactive) | 3.97 µM (inactive) | 7.11 µM (inactive) | 3.84 µM (inactive) | – | 6.98 µM (inactive) | 7.24 µM (inactive) | – | 1.03 µM (active)
O=S(=O)(O)c1ccc(-c2c3nc(c(-c4ccc(S(=O)(=O)O)cc4)c4ccc([nH]4)c(-c4ccc(S(=O)(=O)O)cc4)c4nc(c(-c5ccc(S(=O)(=O)O)cc5)c5ccc2[nH]5)C=C4)C=C3)cc1 | > 100 µM (inactive) | 19.9 µM (inactive) | 31 µM (inactive) | > 100 µM (inactive) | > 100 µM (inactive) | 21.8 µM (inactive) | > 100 µM (inactive) | > 100 µM (inactive) | > 100 µM (inactive) | > 100 µM (inactive) | 95.5 µM (inactive) | > 100 µM (inactive) | 45.6 µM (inactive) | > 100 µM (inactive) | 19.5 µM (inactive) | > 100 µM (inactive) | > 100 µM (inactive) | –
C/C(=N/O)c1sc(-c2nc(C)c(/C(C)=N\O)s2)nc1C | > 100 µM (inactive) | > 100 µM (inactive) | > 100 µM (inactive) | > 100 µM (inactive) | > 100 µM (inactive) | > 100 µM (inactive) | > 100 µM (inactive) | > 100 µM (inactive) | > 100 µM (inactive) | > 100 µM (inactive) | > 100 µM (inactive) | > 100 µM (inactive) | > 100 µM (inactive) | – | > 100 µM (inactive) | > 100 µM (inactive) | > 100 µM (inactive) | > 100 µM (inactive)
CC(C)(C)OC(=O)Cc1ccc2c(ccn2Cc2ccccc2)c1 | > 100 µM (inactive) | 37.1 µM (inactive) | > 100 µM (inactive) | 52.1 µM (inactive) | 57.3 µM (inactive) | 79.3 µM (inactive) | > 100 µM (inactive) | > 100 µM (inactive) | 81.8 µM (inactive) | 67.1 µM (inactive) | 48 µM (inactive) | 17.2 µM (inactive) | 83.6 µM (inactive) | 42.5 µM (inactive) | 37.9 µM (inactive) | 44.1 µM (inactive) | 39.9 µM (inactive) | 28.2 µM (inactive)
CC(=O)/C=C/c1ccc(C)cc1 | > 100 µM (inactive) | > 100 µM (inactive) | > 100 µM (inactive) | > 100 µM (inactive) | > 100 µM (inactive) | > 100 µM (inactive) | > 100 µM (inactive) | > 100 µM (inactive) | > 100 µM (inactive) | > 100 µM (inactive) | > 100 µM (inactive) | > 100 µM (inactive) | > 100 µM (inactive) | > 100 µM (inactive) | > 100 µM (inactive) | > 100 µM (inactive) | > 100 µM (inactive) | > 100 µM (inactive)
CC(C)N(C(=O)C12C3C4C1C1C2C3C41C#N)C(C)C (centres undefined) | > 100 µM (inactive) | > 100 µM (inactive) | > 100 µM (inactive) | > 100 µM (inactive) | > 72.8 µM (inactive) | > 100 µM (inactive) | > 100 µM (inactive) | > 100 µM (inactive) | > 100 µM (inactive) | > 54.5 µM (inactive) | > 71.8 µM (inactive) | > 100 µM (inactive) | > 100 µM (inactive) | > 100 µM (inactive) | > 100 µM (inactive) | > 100 µM (inactive) | > 100 µM (inactive) | > 41.4 µM (inactive)
